Experimental data as given in publication PMC5583591, “The N-terminal Region of Nisin Is Important for the BceAB-Type ABC Transporter NsrFP from Streptococcus agalactiae COH1” (Frontiers in Microbiology, 2017).

How the values were obtained:
Type in all cases: cell-based, Lactococcus lactis
NZ9000NsrFH202AP = assay: Growth inhibition (IC50), strain expressing ATP-hydrolysis-deficient NsrFH202AP; details: IC50 against NZ9000NsrFH202AP divided by IC50 against NZ9000Cm
Text: (§1) The nsrfp gene from S. agalactiae COH1 was amplified from the chromosomal DNA using two primers (NsrFP_for 5′-[…]-3′ and NsrFP_rev 5′-[…]-3) and ligated into pIL-SV (E. coli–L. lactis shuttle vector) ([Alkhatib et al., 2014b]). The point mutation NsrFH202A was introduced by a standard mutagenesis protocol using the following primers: forward: 5′-[…]-3′; reverse: 5′-[…]-3′. The resulting plasmid was verified by sequencing and transformed into the L. lactis strain NZ9000 for expression ([Holo and Nes, 1989]) and the corresponding strains were termed NZ9000NsrFP and NZ9000NsrFH202AP. An empty vector pIL-SVCm was also transformed into the NZ9000 strain and was used as a control (that excludes any possible effect of induction of the plasmid), and this strain was called NZ9000Cm. The expression of the nsrfp gene is regulated by the TCS NisR/NisK present in the NZ9000 strain genome.
Cells from the different expressing strains were grown overnight in GM17 supplemented with 5 μg/ml chloramphenicol in presence of 1 ng/ml nisin. The diluted cells (final OD584 was 0.1) were incubated with a serial dilution of nisin in a 96-well plate. The total volume in each well was 200 μl, consisting of 50 μl nisin and 150 μl GM17 containing the corresponding L. lactis strain.
(§2) The plate was incubated at 30°C. After 5 h, the optical density was measured at 584 nm via 96-well plate reader BMG. The normalized optical density was plotted against the logarithm of the nisin concentration in order to calculate the IC50 of nisin and the data was evaluated using the following equation (Eq. 1):
y=ODmin+ODmax−ODmin/1+10^(log(IC50)−x) ×p
The ODmax value describes the normalized optical density value where no nisin was added, while the ODmin value corresponds to the normalized optical density of the cells grown in the highest nisin concentrations. The y represents the resulted normalized optical density value and x represents the logarithmic of the nisin concentration added. The IC50 value is the concentration of nisin where the growth of the L. lactis strain is inhibited by 50% ([Abts et al., 2011]).
We determined the IC50 value of nisin against the NZ9000Cm sensitive strain as well as the strain NZ9000NsrFP and NZ9000NsrFH202AP. By dividing these two values the fold of resistance is obtained. […] Dividing these two values results in a fold of resistance of 16.7.

NZ9000Cm = assay: Growth inhibition (IC50), nisin-sensitive control strain with empty vector; details: product of NSR cleavage (last six amino acids cleaved off)
Text: as §1
Cells from the different expressing strains were grown overnight in GM17 supplemented with 5 μg/ml chloramphenicol in presence of 1 ng/ml nisin. […]
as §2, with “1): […]” for “1):”

NZ9000NsrFP = assay: Growth inhibition (IC50), strain expressing NsrFP; details: IC50 against NZ9000NsrFP divided by IC50 against NZ9000Cm
Text: as §1, with “genome. […]” for “genome.”
as §2, with “1): […]” for “1):”
We determined the IC50 value of nisin against the NZ9000Cm sensitive strain as well as the strain NZ9000NsrFP and NZ9000NsrFH202AP. […]

Row | Structure (SMILES) | Fold of resistance NZ9000NsrFH202AP (NZ9000NsrFH202AP) | Fold lower activity compared with nisin (NZ9000Cm) | Fold of resistance NZ9000NsrFP (NZ9000NsrFP)
1 | C=C1NC(=O)[C@H]([C@@H](C)CC)NC(=O)[C@H](NC(=O)/C(=C/C)NC(=O)[C@@H](N)[C@@H](C)CC)CSC[C@@H](C(=O)N[C@H]2C(=O)N3CCC[C@H]3C(=O)NCC(=O)N[C@H](C(=O)N[C@@H](CCCCN)C(=O)N[C@H]3C(=O)NCC(=O)N[C@@H](C)C(=O)N[C@@H](CC(C)C)C(=O)N[C@@H](CCSC)C(=O)NCC(=O)N[C@H](C(=O)N[C@@H](CC(N)=O)C(=O)N[C@@H](CCSC)C(=O)N[C@@H](CCCCN)C(=O)N[C@H]4C(=O)N[C@@H](C)C(=O)N[C@H]5C(=O)N[C@@H](CS[C@H]4C)C(=O)N[C@@H](Cc4c[nH]cn4)C(=O)N[C@H](C(=O)O)CS[C@H]5C)CS[C@H]3C)CS[C@H]2C)NC(=O)[C@H](CC(C)C)NC1=O [Nisin1-28] | 0.4 fold | 32 fold | –
2 | C/C=C(\NC(=O)[C@H](CCCCN)NC(=O)[C@H](C)NC(=O)[C@@H]1CS[C@@H](C)[C@@H](NC(=O)[C@@H]2CSC[C@@H](NC(=O)[C@H](C)NC(=O)[C@@H](N)[C@@H](C)CC)C(=O)N[C@@H](CCCCN)C(=O)N[C@@H](Cc3ccccc3)C(=O)N[C@@H](CC(C)C)C(=O)N2)C(=O)N2CCC[C@H]2C(=O)NCC(=O)N1)C(=O)NCC(=O)N[C@@H]1CSC[C@@H]2NC(=O)[C@H](Cc3ccc(O)cc3)NC(=O)[C@@H](CS/C=C\NC2=O)NC(=O)[C@H](CC(N)=O)NC(=O)[C@H](Cc2ccccc2)NC1=O [Gallidermin] | 0.9 fold | – | 12.5 fold
3 | C=C1NC(=O)[C@H]([C@@H](C)CC)NC(=O)[C@H](NC(=O)/C(=C/C)NC(=O)[C@@H](N)[C@@H](C)CC)CSC[C@@H](C(=O)N[C@H]2C(=O)N3CCC[C@H]3C(=O)NCC(=O)N[C@H](C(=O)N[C@@H](CCCCN)C(=O)N[C@H]3C(=O)NCC(=O)N[C@@H](C)C(=O)N[C@@H](CC(C)C)C(=O)N[C@@H](CCSC)C(=O)NCC(=O)N[C@H](C(=O)N[C@@H](CC(N)=O)C(=O)N[C@@H](CCSC)C(=O)N[C@@H](CCCCN)C(=O)O)CS[C@H]3C)CS[C@H]2C)NC(=O)[C@H](CC(C)C)NC1=O [Nisin1-22] | 0.7 fold | – | –
4 | C=C(NC(=O)[C@@H](NC(=O)[C@H](CCCCN)NC(=O)[C@@H](NC(=O)[C@H](CO)NC(=O)[C@@H]1CS[C@@H](C)[C@H]2NC(=O)[C@H](C)NC(=O)[C@H](NC(=O)[C@H](CCCCN)NC(=O)[C@H](Cc3ccc(O)cc3)NC(=O)[C@H](CC(N)=O)NC(=O)[C@@H]3CS[C@@H](C)[C@@H](NC(=O)[C@H](CCCCN)NC(=O)[C@@H]4CS[C@@H](C)[C@@H](NC(=O)[C@@H]5CSC[C@@H](NC(=O)/C(=C/C)NC(=O)[C@@H](N)Cc6ccccc6)C(=O)N[C@@H]([C@@H](C)CC)C(=O)NC(=C)C(=O)N[C@@H](CCSC)C(=O)N5)C(=O)N5CCC[C@H]5C(=O)NCC(=O)N4)C(=O)NCC(=O)N[C@@H](C)C(=O)N[C@@H](CC(C)C)C(=O)N[C@@H](CCSC)C(=O)N/C(=C\C)C(=O)N3)[C@H](C)SC[C@H](NC2=O)C(=O)N[C@@H](Cc2c[nH]cn2)C(=O)N1)[C@@H](C)CC)C(C)C)C(=O)N[C@@H](CCCCN)C(=O)O [Nisin H] | 1.1 fold | – | 12.3 fold
